Several values for one entry are separate records, joined by “and”; a condition that tells them apart may be missing. Equal values may be shown once. Read-outs that look alike come from different tables or passages of the source. Marks after values point to notes of the source that are not given here.
What was measured:
UWB1.289 [1] = conditions: for GI50: read-out: GI50 ±SEM (50% inhibition of cell growth, cytostatic); for IC50: read-out: IC50 ±SEM (50% cytocidal effect, cytotoxic)
SKOV-3 [2] = conditions: for GI50: read-out: GI50 ±SEM (50% inhibition of cell growth, cytostatic); for IC50: read-out: IC50 ±SEM (50% cytocidal effect, cytotoxic)
OVCAR-3 [3] = conditions: for GI50: read-out: GI50 ±SEM (50% inhibition of cell growth, cytostatic); for IC50: read-out: IC50 ±SEM (50% cytocidal effect, cytotoxic)
[4] = MTT assay, selectivity on normal lung fibroblasts; conditions: human, MRC-5 normal lung fibroblasts
MRC-5 = test: MTT assay, selectivity on normal lung fibroblasts; conditions: for GI50: Homo sapiens, MRC5, 48 h, read-out: GI50 ±SEM (50% inhibition of cell growth, cytostatic)
[5] = system: PHA-stimulated PBMCs (T-lymphocytes) from healthy donors; test: Sister chromatid exchanges (SCEs) assay, genotoxicity and PRI
UWB1.289 [6] = test: as above
PARP2 mRNA (PARP2/ACTB) = test: PARP2 mRNA expression analysis by qRT-PCR; assay type: cell-based, human; conditions: UWB1.289, vs untreated cells, 20 and 40 μΜ, 72 h
UWB1.289 [7] = conditions: human
SKOV-3 [8] = conditions: human
OVCAR-3 [9] = conditions: human
[10] = system: PHA-stimulated PBMCs (T-lymphocytes) from healthy donors; conditions: human
UWB1.289 [11] = conditions: human; remark: listed apart in the source
in vitro = conditions: human
PARP1 mRNA (PARP1/ACTB) = assay type: cell-based, human

For `O=C(c1cc(Cc2n[nH]c(=O)c3ccccc23)ccc1F)N1CCN(C(=O)C2CC2)CC1` [Olaparib], the “TGI ±SEM (100% cell growth inhibition, cytostatic)” value (UWB1.289 [1]) was 85 ± 9.34 µM, the GI50 (UWB1.289 [1]) was 14 ± 1.78 µM and the IC50 (UWB1.289 [1]; UWB1.289, 48 h treatment, MTT) was greater than 100 µM. For the same compound, the “TGI ±SEM (100% cell growth inhibition, cytostatic)” value (SKOV-3 [2]) was greater than 100 µM, the GI50 (SKOV-3 [2]) was greater than 100 µM and the IC50 (SKOV-3 [2]; SKOV-3, 48 h treatment, MTT) was greater than 100 µM. For the same compound, the “TGI ±SEM (100% cell growth inhibition, cytostatic)” value (OVCAR-3 [3]) was greater than 100 µM, the GI50 (OVCAR-3 [3]) was 32 ± 4.64 µM and the IC50 (OVCAR-3 [3]; OVCAR-3, 48 h treatment, MTT) was greater than 100 µM. For the same compound, the IC50 at 48 h [4] was greater than 100 µM, the “TGI ±SEM (100% cell growth inhibition, cytostatic)” value (MRC-5) was greater than 100 µM and the GI50 (MRC-5) was greater than 100 µM. The “PRI (Proliferation Rate Index)” value ([5]; Donor 1 PBMCs, 3 μM) was 2.60, the “SCE/Chromosome ± SEM” value ([5]; Donor 1 PBMCs, 3 μM) was 0.44 ± 0.02 and the “SCEs/Metaphase ± SEM” value ([5]; Donor 1 PBMCs, 3 μM) was 20.43 ± 1.1. The “PRI (Proliferation Rate Index)” value ([5]; Donor 2 PBMCs, 3 μM) was 2.56, the “SCE/Chromosome ± SEM” value ([5]; Donor 2 PBMCs, 3 μM) was 0.47 ± 0.03 and the “SCEs/Metaphase ± SEM” value ([5]; Donor 2 PBMCs, 3 μM) was 21.6 ± 1.4. For the same compound, the “PRI (Proliferation Rate Index)” value ([5]; Donor 3 PBMCs, 3 μM) was 2.47, the “SCE/Chromosome ± SEM” value ([5]; Donor 3 PBMCs, 3 μM) was 0.52 ± 0.03 and the “SCEs/Metaphase ± SEM” value ([5]; Donor 3 PBMCs, 3 μM) was 23.87 ± 1.5. For the same compound, the “PRI (Proliferation Rate Index)” value ([5]; Donor 4 PBMCs, 3 μM) was 2.76, the “SCE/Chromosome ± SEM” value ([5]; Donor 4 PBMCs, 3 μM) was 0.48 ± 0.03 and the “SCEs/Metaphase ± SEM” value ([5]; Donor 4 PBMCs, 3 μM) was 21.92 ± 1.2. The “PRI (Proliferation Rate Index)” value ([5]; Donor 5 PBMCs, 3 μM) was 2.34, the “SCE/Chromosome ± SEM” value ([5]; Donor 5 PBMCs, 3 μM) was 0.55 ± 0.04 and the “SCEs/Metaphase ± SEM” value ([5]; Donor 5 PBMCs, 3 μM) was 25.32 ± 1.6. The “Mean PRI ± SD” value ([5]; mean of 5 donors' PBMCs, 3 μM) was 2.546 ± 0.16, the “Mean SCE/Chromosome ± SD” value ([5]; mean of 5 donors' PBMCs, 3 μM) was 0.66 ± 0.04 and the “Mean SCEs/metaphase Mean ± SD” value ([5]; mean of 5 donors' PBMCs, 3 μM) was 22.63 ± 1.95. For the same compound, the “PRI (Proliferation Rate Index)” value (UWB1.289 [6]; UWB1.289, 3 μM) was 1.98 *, the “SCE/Chromosome ± SEM” value (UWB1.289 [6]; UWB1.289, 3 μM) was 0.90 ± 0.06 and the “SCEs/Metaphase ± SEM” value (UWB1.289 [6]; UWB1.289, 3 μM) was 66.78 ± 4.45.

With `CC12CCC3C(NC(=O)C=C4CC(OC(=O)CCOc5ccc(N(CCCl)CCCl)cc5)CCC43C)C1CCC(=O)N2` (stereo not shown) [ASA-B, 11a,13a-dimethyl-2,6-dioxo-2,3,4,4a,4b,5,6,8,9,10,11,11a,11b,12,13,13a-hexadecahydro-1H-benzo[4,5]azepino [2,3-f]quinolin-9-yl 3-(4-(bis(2-chloroethyl)amino)phenoxy)propanoate] the “increase of the PARP2/ACTB mRNA ratio” value (PARP2 mRNA (PARP2/ACTB)) was 140- to150 fold, the IC50 (UWB1.289 [7]) was 54 ± 5.11 µM and the IC50 (SKOV-3 [8]) was 98 ± 8.97 µM. The IC50 (OVCAR-3 [9]) was greater than 100 µM, the “Mean SCE/Chromosome ± SD” value [10] was 0.86 ± 0.06 and the “Mean SCEs/metaphase Mean ± SD” value [10] was 39.54 ± 2.84. For the same compound, the “SCE/Chromosome ± SEM” value (UWB1.289 [11]) was 1.17 ± 0.07, the “SCEs/Metaphase ± SEM” value (UWB1.289 [11]) was 86.76 ± 4.97 and the IC50 (in vitro) was greater than 100 µM. The “TGI ±SEM (100% cell growth inhibition, cytostatic)” value (UWB1.289 [1]) was 35 ± 3.63 µM, the GI50 (UWB1.289 [1]) was 10 ± 0.81 µM and the “TGI ±SEM (100% cell growth inhibition, cytostatic)” value (SKOV-3 [2]) was 51 ± 4.46 µM. For the same compound, the GI50 (SKOV-3 [2]) was 24 ± 2.42 µM, the “TGI ±SEM (100% cell growth inhibition, cytostatic)” value (OVCAR-3 [3]) was 81 ± 7.82 µM and the GI50 (OVCAR-3 [3]) was 44 ± 5.04 µM. For the same compound, the “TGI ±SEM (100% cell growth inhibition, cytostatic)” value (MRC-5) was greater than 100 µM, the GI50 (MRC-5) was 86 ± 9.95 µM and the “Mean PRI ± SD” value [5] was 2.23 ± 0.12. The “PRI (Proliferation Rate Index)” value [5] was 2.30 and 2.18 and 2.04 and 2.34 and 2.29 and the “PRI (Proliferation Rate Index)” value (UWB1.289 [6]) was 1.77 *.

For `C[C@]12CC[C@H](OC(=O)CCOc3ccc(N(CCCl)CCCl)cc3)CC1=CC(=O)NC1C2CC[C@]2(C)C(=O)CCC12` (stereo partly shown) [ASA-A, 7a,9a-dimethyl-2,10-dioxo-1,2,4,5,6,7,7a,7b, 8,9,9a,10,11,12,12a,12b-hexadecahydrobenzo[d]indeno [4,5-b]azepin-5-yl 3-(4-(bis(2-chloroethyl)amino)phenoxy)propanoate], the IC50 (UWB1.289 [7]) was 71 ± 7.01 µM, the IC50 (SKOV-3 [8]) was 67 ± 7.11 µM and the IC50 (OVCAR-3 [9]) was 47 ± 4.82 µM. For the same compound, the “Mean SCE/Chromosome ± SD” value [10] was 0.66 ± 0.04, the “Mean SCEs/metaphase Mean ± SD” value [10] was 30.28 ± 2.03 and the “SCE/Chromosome ± SEM” value (UWB1.289 [11]) was 1.0 ± 0.054. The “SCEs/Metaphase ± SEM” value (UWB1.289 [11]) was 73.78 ± 4.03, the IC50 (in vitro) was greater than 100 µM and the “TGI ±SEM (100% cell growth inhibition, cytostatic)” value (UWB1.289 [1]) was 52 ± 4.61 µM. The GI50 (UWB1.289 [1]) was 19 ± 1.83 µM, the “TGI ±SEM (100% cell growth inhibition, cytostatic)” value (SKOV-3 [2]) was 33 ± 2.79 µM and the GI50 (SKOV-3 [2]) was 15 ± 1.26 µM. For the same compound, the “TGI ±SEM (100% cell growth inhibition, cytostatic)” value (OVCAR-3 [3]) was 38 ± 2.95 µM, the GI50 (OVCAR-3 [3]) was 29 ± 3.04 µM and the “TGI ±SEM (100% cell growth inhibition, cytostatic)” value (MRC-5) was greater than 100 µM. The GI50 (MRC-5) was 69 ± 7.13 µM, the “Mean PRI ± SD” value [5] was 2.18 ± 0.13 and the “PRI (Proliferation Rate Index)” value [5] was 2.13 and 2.21 and 1.98 and 2.32 and 2.26. For the same compound, the “PRI (Proliferation Rate Index)” value (UWB1.289 [6]) was 1.88 *.

For `NC(=O)c1cccc(N)c1` [3-AB, 3-Aminobenzamide, reference compound], the “alterations in the PARP1/ACTB mRNA cellular content” value (PARP1 mRNA (PARP1/ACTB)) was “non-significant alterations”, the “TGI ±SEM (100% cell growth inhibition, cytostatic)” value (UWB1.289 [1]; UWB1.289, 48 h treatment, MTT) was greater than 100 µM and the GI50 (UWB1.289 [1]; UWB1.289, 48 h treatment, MTT) was 92 ± 13 µM. The IC50 (UWB1.289 [1]; UWB1.289, 48 h treatment, MTT) was greater than 100 µM, the “TGI ±SEM (100% cell growth inhibition, cytostatic)” value (SKOV-3 [2]; SKOV-3, 48 h treatment, MTT) was greater than 100 µM and the GI50 (SKOV-3 [2]; SKOV-3, 48 h treatment, MTT) was greater than 100 µM. For the same compound, the IC50 (SKOV-3 [2]; SKOV-3, 48 h treatment, MTT) was greater than 100 µM, the “TGI ±SEM (100% cell growth inhibition, cytostatic)” value (OVCAR-3 [3]; OVCAR-3, 48 h treatment, MTT) was greater than 100 µM and the GI50 (OVCAR-3 [3]; OVCAR-3, 48 h treatment, MTT) was greater than 100 µM. For the same compound, the IC50 (OVCAR-3 [3]; OVCAR-3, 48 h treatment, MTT) was greater than 100 µM, the IC50 at 48 h [4] was greater than 100 µM and the GI50 (MRC-5) was greater than 100 µM. The “TGI ±SEM (100% cell growth inhibition, cytostatic)” value (MRC-5; MRC-5 normal human lung fibroblasts, 48 h treatment, MTT) was greater than 100 µM, the “Mean PRI ± SD” value ([5]; mean of 5 donors' PBMCs, 3 μM) was 2.696 ± 0.12 and the “Mean SCE/Chromosome ± SD” value ([5]; mean of 5 donors' PBMCs, 3 μM) was 0.30 ± 0.03. For the same compound, the “Mean SCEs/metaphase Mean ± SD” value ([5]; mean of 5 donors' PBMCs, 3 μM) was 14.03 ± 1.24, the “SCE/Chromosome ± SEM” value (UWB1.289 [6]; UWB1.289, 3 μM) was 0.43 ± 0.025 and the “SCEs/Metaphase ± SEM” value (UWB1.289 [6]; UWB1.289, 3 μM) was 31.91 ± 1.88.

Work on `CC(C)CCCC(C)[C@H]1CCC2C3NC(=O)C=C4C[C@@H](OC(=O)CCOc5ccc(N(CCCl)CCCl)cc5)CC[C@]4(C)C3CC[C@@]21C` (stereo partly drawn) [ASA-C, 7a,9a-dimethyl-10-((R)-6-methylheptan-2-yl)-2-oxo-1,2,4,5,6,7,7a,7b,8,9,9a,10,11,12,12a,12b-hexadecahydrobenzo[d]indeno[4,5-b]azepin-5-yl 3-(4-(bis(2-chloroethyl)amino)phenoxy)propanoate] yielded an IC50 (UWB1.289 [7]) greater than 100 µM, an IC50 (SKOV-3 [8]) greater than 100 µM and an IC50 (OVCAR-3 [9]) greater than 100 µM. The “Mean SCE/Chromosome ± SD” value [10] was 0.19 ± 0.08, the “Mean SCEs/metaphase Mean ± SD” value [10] was 8.81 ± 0.4 and the “SCE/Chromosome ± SEM” value (UWB1.289 [11]) was 0.33 ± 0.02. For the same compound, the “SCEs/Metaphase ± SEM” value (UWB1.289 [11]) was 24.53 ± 1.72, the IC50 (in vitro) was greater than 100 µM and the “TGI ±SEM (100% cell growth inhibition, cytostatic)” value (UWB1.289 [1]) was greater than 100 µM. The GI50 (UWB1.289 [1]) was 73 ± 7.58 µM, the “TGI ±SEM (100% cell growth inhibition, cytostatic)” value (SKOV-3 [2]) was greater than 100 µM and the GI50 (SKOV-3 [2]) was greater than 100 µM. For the same compound, the “TGI ±SEM (100% cell growth inhibition, cytostatic)” value (OVCAR-3 [3]) was greater than 100 µM, the GI50 (OVCAR-3 [3]) was greater than 100 µM and the “TGI ±SEM (100% cell growth inhibition, cytostatic)” value (MRC-5) was greater than 100 µM. For the same compound, the GI50 (MRC-5) was greater than 100 µM, the “Mean PRI ± SD” value [5] was 2.612 ± 0.13 and the “PRI (Proliferation Rate Index)” value [5] was 2.48 and 2.72 and 2.47 and 2.65 and 2.74. The “PRI (Proliferation Rate Index)” value (UWB1.289 [6]) was 2.15.

From publication PMC8394033, “Cytocidal Antitumor Effects against Human Ovarian Cancer Cells Induced by B-Lactam Steroid Alkylators with Targeted Activity against Poly (ADP-Ribose) Polymerase (PARP) Enzymes in a Cell-Free Assay” (Biomedicines, 2021)
